From US11614423B2, “Transformed response potentiometric titrations” (UNIVERSITEIT ANTWERPEN, priority 2014, dated 2023)

Experiments:
[1] = Transformed response potentiometric titration of cocaine (ligand) with titrants; type: binding; settings: for Ka: 1 mM MES buffer pH 7.0, mean of n electrodes
[2] = tested on: Cocaine Binding Aptamer (CBA); test: Transformed response potentiometric titration of different ligands with CBA as titrant (cross-reactivity); settings: for Ka: Post-EP method, 10^−5 M ligand in 1 mM MES buffer pH 7, CBA as titrant

Row | Molecule | Ka ([1]; Post-EP (PEP) method) [M⁻¹] | Ka [2] [M⁻¹] | further results
1 | 25-mer-DNA: randomly chosen non-specific oligonucleotide, likely SEQ ID NO: 2 (DNA AAAATATCATCTTTGGTGTTTCCTA; DNA, backbone and methylation of C not given here) | 24000 |  | specific interaction with cocaine (in words) ([1]; comparison of titration curves and Ka values): little or no specific interaction
2 | Clc1ccc([B-](c2ccc(Cl)cc2)(c2ccc(Cl)cc2)c2ccc(Cl)cc2)cc1 [TCPB, tetrakis (4-chlorophenyl)borate] | 9e+09 |  | Ka ([1]; Equivalence Point (EP) method): 3e+09 M⁻¹
3 | CN(Cc1cc(Br)cc(Br)c1N)C1CCCCC1 [bromhexine] |  | 570000 | 
4 | CCN(CC)CC(=O)Nc1c(C)cccc1C [lidocaine] |  | 100000 | 
5 | CN1C[C@H](CNC(=O)OCc2ccccc2)C[C@@H]2c3cccc4c3c(cn4C)C[C@H]21 [metergoline] |  | 3.3e+06 | interaction with CBA (in words) ([2]; cross-reactivity compared with cocaine): better interaction with metergoline than with cocaine
6 | CBA: Cocaine Binding Aptamer, sequence SEQ ID NO: 1, 43 bases (DNA ATCTCGGGACGACAGGATTTTCCTCAATGAAGTGGGTCGTCCC; DNA, backbone not given here) |  |  | Kd ([1]; Post-EP method, n=6 electrodes): 1100 nM
7 | CAPBA: Chloramphenicol Binding Aptamer, sequence SEQ ID NO: 3 (nucleic acid, DNA, backbone and methylation of C not given here) DNA: AGCAGCACAGAGGTCAGATGACTTCAGTGAGTTGTCCCACGGTCGGCGAGTCGGTGGTAGCCTATGCGTGCTACCGTGAA | 47000 |  | 
